# “Also recorded” adds a separate entry of the source. Where two headings read alike, the source gives them in different places.
# Assays:
# [1] = system: Enterococcus faecalis or faecium; test: MIC test (titration method, EUCAST); assay type: cell-based; details: for MIC: read-out: MHK (MIC) EK
# Experimental: (§1) The activities of the novel compounds were tested in two different screening systems. The antibacterial and antifungal activities were examined by means of an MIC test, MIC standing for “minimal inhibitory concentration” and referring to the lowest concentration of a substance at which no proliferation of microorganisms can be observed with the naked eye. The MIC is determined by means of a so called titration method in which the substance is diluted and, subsequently, the pathogen is added to it.
# (§2) Usually, this method is applied in order to determine the concentration of an antibiotic which only just inhibits the growth of a bacterial strain. The MIC is indicated in micrograms per milliliter (μg/ml), and the dilutions are conventionally carried out in log 2 steps. Herein, a starting concentration of 250 μg/ml was diluted several times, to the double volume in each case, resulting in test concentrations of 250 μg/ml, 125 μg/ml, 62.5 μg/ml, 31.2 μg/ml, 15.6 μg/ml, 7.8 μg/ml, etc. Thus, lower values indicate a better activity as an anti-infective.
# (§3) The tests were carried out according to the standards of EUCAST (European Committee for Antimicrobial Susceptibility Testing) and according to the AFST-protocol (“Antifungal Susceptibility Testing” protocol) of the European Society of Clinical Microbiology and Infectious Diseases (ESCMID).
# (§4) In the following Table 3, the test results indicating the anti-infective action of 3-O-acetyl altersolanol M, alterporriol I and J as well as of some known and structurally similar comparative substances against some multi-resistant bacteria and fungi (all of which were kindly placed at our disposal by Prof Georgopulos from the Medical University of Vienna). The data constituting averages of the values obtained in multiple test runs.
# [2] = system: Staphylococcus epidermis; test: MIC test (titration method, EUCAST); assay type: cell-based; details: for MIC: read-out: MHK (MIC) SE
# Experimental: as §1, §2, §3, §4
# [3] = system: Streptococcus pneumoniae; test: MIC test (titration method, EUCAST); assay type: cell-based; details: for MIC: read-out: MHK (MIC) STR
# Experimental: as §1, §2, §3, §4
# [4] = system: E. coli; test: MIC test (titration method, EUCAST); assay type: cell-based; details: Escherichia coli, read-out: MHK (MIC) EC
# Experimental: as §1, §2, §3, §4
# [5] = system: methicillin-resistant Staphylococcus aureus; test: MIC test (titration method, EUCAST); assay type: cell-based; details: for MIC: MRSA, read-out: MHK (MIC) MRSA
# Experimental: as §1, §2, §3, §4
# [6] = system: bacteria and fungi; details: Aly et al., Phytochemistry 69; cited from earlier work
# [7] = system: Aspergillus fumigatus or faecalis; test: MIC test (AFST protocol); assay type: cell-based; details: multi-resistant Aspergillus fumigatus or faecalis, averages of multiple test runs; for MIC: read-out: MHK (MIC) ASP
# Experimental: as §1, §2, §3, §4
# [8] = Yagi et al., Phytochemistry 34(4); cited from earlier work
# [9] = system: Klebsiella sp.; test: MIC test (titration method, EUCAST); assay type: cell-based; details: multi-resistant Klebsiella sp., averages of multiple test runs
# Experimental: as §1, §2, §3, §4
# [10] = system: Pseudomonas aeruginosa; test: MIC test (titration method, EUCAST); assay type: cell-based; details: multi-resistant Pseudomonas aeruginosa, averages of multiple test runs
# Experimental: as §1, §2, §3, §4
# [11] = Electrical Cell Substrate Impedance Sensing (ECIS) test; assay type: cell-based; details: results not indicated, comparison only
# [12] = system: melanoma cells; test: Alamar Blue assay using melanoma cells; assay type: cell-based; details: for inhibition at 10 µg/mL: read-out: inhibition / reduction of the number of melanoma cells
# Experimental: In this test, the dye resazurin is used as an indicator for measuring the cytotoxicity of substances. […] Depending on the degree of their toxicity, cytotoxic agents decelerate or stop this reduction.
# In the course of this experiment, melanoma cells were treated with several concentrations of 3-O-acetyl altersolanol M, i.e. with 1, 10, and 50 μg/ml, with altersolanol K and alterporriol F as comparative substances, as well as with alterporriol I+J, i.e. compound (5) of the present invention, at respective concentrations of 10 μg/ml, and incubated for 48 h, whereafter the samples' fluorescence was determined spectrophotometrically at 570/600 nm, the fluorescence being proportional to the number of surviving cells in the samples.
# The measurement results were related to the fluorescence of a blank, to which no cytotoxic agent had been added, and are shown in a graph in FIG. 1.
# [13] = system: melanoma cells; test: Three-dimensional tumor test in matrix gel; assay type: cell-based; details: 30, 50 or 3,000 μg/ml, 37° C.
# Experimental: In addition to the above two-dimensional test, the cytotoxic action of 3-O-acetyl altersolanol M was also examined in an innovative three-dimensional test system. In this test, small tumors are grown in a matrix gel, in which the activity of an anti-cancer agent may be directly tested by adding said agent at different concentrations. A blank, i.e. melanoma cells without any cytotoxic agent, and an equal amount of melanoma cells together with 30, 50 or 3,000 μg/ml of 3-O-acetyl altersolanol M were incubated in the matrix gel for 120 hours at 37° C.
# [14] = system: Gram-positive bacteria and the Gram-negative species Pseudomonas aeruginosa; details: Okamura et al., Phytochemistry 42(1); cited from earlier work
# [15] = multi-resistant Enterococcus faecalis or faecium, averages of multiple test runs
# [16] = multi-resistant Staphylococcus epidermis, averages of multiple test runs
# [17] = multi-resistant Streptococcus pneumoniae, averages of multiple test runs
# [18] = multi-resistant E. coli, averages of multiple test runs
# [19] = methicillin-resistant Staphylococcus aureus, averages of multiple test runs
# [20] = 10 μg/ml, 48 h, relative to blank
compound,measurement,setting,value
COc1cc(O)c(C(=O)O)c(-c2cc(O)c(O)cc2C)c1 [Altenusin],MIC,[1]; Enterococcus faecalis,62.5 µg/mL
same,MIC,[2]; Staphylococcus,31.2 µg/mL
same,MIC,[3]; Streptococcus pneumoniae,31.2 µg/mL
same,MIC,[4],62.5 µg/mL
same,MIC,[5]; Staphylococcus aureus,31.2 µg/mL
"COc1cc(O)c2c(c1)C(=O)C1=C(C2=O)[C@H](O)[C@@H](O)[C@@](C)(O)[C@@H]1O [Altersolanol A, 7-methoxy-2-methyl-(1R,2S,3R,4S)-1,2,3,4-tetrahydro-1,2,3,4,5-pentahydroxy-anthracene-9,10-dione]",activity against bacteria and fungi,[6],the most efficient of the tested substances
same,MIC,[7],7.8 µg/mL
same,MIC,[1]; [15],15.6 µg/mL
same,MIC,[2]; [16],7.8 µg/mL
same,MIC,[3]; [17],7.8 µg/mL
same,MIC,[4]; [18],62.5 µg/mL
same,MIC,[5]; [19],7.8 µg/mL
same,anti-microbial activity,[8],anti-microbial activity
COc1cc(O)c2c(c1)C(=O)[C@H]1C[C@](C)(O)[C@H](O)C[C@@H]1[C@H]2O [Altersolanol J],activity against bacteria and fungi,[6],do not show any activity against bacteria and fungi
same,MHK (MIC) ASP,[7],125 µg/mL
same,MHK (MIC) EK,[1]; [15],31.2 µg/mL
same,MHK (MIC) SE,[2]; [16],62.5 µg/mL
same,MHK (MIC) STR,[3]; [17],15.6 µg/mL
same,MHK (MIC) KL,[9],125 µg/mL
same,MHK (MIC) MRSA,[5]; [19],62.5 µg/mL
COc1cc(O)c2c(c1)[C@H](O)[C@@H]1[C@@H](C2=O)[C@H](O)[C@@H](O)[C@@](C)(O)[C@@H]1O [Ampelanol],activity against bacteria and fungi,[6],do not show any activity against bacteria and fungi
COC1=CC(=O)c2c(O)c3c(c(O)c2C1=O)C[C@](C)(O)[C@H](O)[C@H]3O [Bostrycin],MIC,[2]; [16],125 µg/mL
same,MIC,[3]; [17],62.5 µg/mL
same,MIC,[5]; [19],125 µg/mL
"COc1cc(O)c2c(c1)C(=O)C1=C(C2=O)[C@@H](O)[C@H](OC(C)=O)[C@@](C)(O)[C@@H]1O [Example 1, (1R,2S,3S,4R)-3-acetoxy-1,2,4,5-tetrahydroxy-7-methoxy-2-methyl-1,2,3,4-tetrahydroanthracene-9,10-dione]",MIC,[7],62.5 µg/mL
same,MIC,[1]; [15],7.8 µg/mL
same,MIC,[2]; [16],7.8 µg/mL
same,MIC,[3]; [17],7.8 µg/mL
same,MIC,[4]; [18],125 µg/mL
same,MIC,[9]; read-out: MHK (MIC) KL,125 µg/mL
same,MIC,[10]; read-out: MHK (MIC) PS,125 µg/mL
same,MIC,[5]; [19],7.8 µg/mL
same,ECIS result (in words),[11],clearly better results than alterporriol I/J
same,inhibition at 1 µg/mL,"[12]; 1 μg/ml, 48 h, relative to blank, read-out: inhibition of the number of surviving cells",> 10%
same,inhibition at 10 µg/mL,[12]; [20],~50%
same,surviving cells (in words),"[12]; 50 μg/ml, 48 h",hardly possible to detect any surviving cells
same,cytotoxic effectiveness relative to alterporriol I/J,"[12]; Alamar Blue, melanoma cells",at least 10 times
same,tumor appearance after 24 hours,[13]; 24 hours,signs of degeneration
same,tumor size after 120 hours,[13]; 120 hours,clearly reduced in size
"COc1cc(O)c2c(c1-c1c(OC)cc(O)c3c1C(=O)c1cc(C)c(O)c(O)c1C3=O)C(=O)C1=C(C2=O)[C@H](O)[C@@H](O)[C@@](C)(O)[C@H]1O [Example 2, 8-(4,5,6-trihydroxy-7-methyl-2-methoxy-9,10-dioxo-9H,10H-anthracen-1-yl)-(1S,2S,3R,4S)-1,2,3,4,5-pentahydroxy-7-methoxy-2-methyl-1,2,3,4-tetrahydro-9H,10H-anthracene-9,10-dione]",MIC,[7],125 µg/mL
same,MIC,[1]; [15],7.8 µg/mL
same,MIC,[2]; [16],7.8 µg/mL
same,MIC,[3]; [17],7.8 µg/mL
same,MIC,[5]; [19],7.8 µg/mL
same,result compared with comparative substances (in words),"[12]; 10 μg/ml, 48 h",slightly better results than the two comparative examples
same,inhibition at 10 µg/mL,[12]; [20],> 10%
COc1cc(O)c2c(c1)C(=O)c1cc(C)c(O)cc1C2=O [Macrosporin],MIC,[2]; [16],62.5 µg/mL
same,MIC,[4]; [18],62.5 µg/mL
same,MIC,[5]; [19],62.5 µg/mL
COc1cc(O)c2c(c1-c1c(OC)cc(O)c3c1C(=O)C1=C(C3=O)[C@H](O)[C@@H](O)[C@@](C)(O)[C@@H]1O)C(=O)C1=C(C2=O)[C@H](O)[C@@H](O)[C@@](C)(O)[C@@H]1O [alterporriol D],activity against bacteria and fungi,[6],do not show any activity against bacteria and fungi
COc1cc(O)c2c(c1)C(=O)C1=C(C[C@@H](O)[C@@](C)(O)C1)C2=O [altersolanol B],anti-microbial activity,[8],anti-microbial activity
COc1cc(O)c2c(c1)C(=O)C1=C(C[C@@H](O)[C@@](C)(O)[C@@H]1O)C2=O [altersolanol C],anti-microbial activity,[8],anti-microbial activity
COc1cc(O)c2c(c1)[C@H](O)[C@H]1C[C@](C)(O)[C@H](O)C[C@@H]1C2=O [tetrahydroaltersolanol B],effect against Gram-positive bacteria and Pseudomonas aeruginosa,[14],do not disclose any effect
Alterporriol A + B,MHK (MIC) ASP,[7],62.5 µg/mL
same,MHK (MIC) EK,[1]; [15],15.6 µg/mL
same,MHK (MIC) SE,[2]; [16],15.6 µg/mL
same,MHK (MIC) STR,[3]; [17],7.8 µg/mL
same,MHK (MIC) MRSA,[5]; [19],15.6 µg/mL
Indole carbaldehyde (carboxaldehyde),MHK (MIC) STR,[3]; [17],62.5 µg/mL
same,MHK (MIC) PS,[10],125 µg/mL
Macrosporin sulfate,MHK (MIC) STR,[3]; [17],31.2 µg/mL
alterporriol E,activity against bacteria and fungi,[6],do not show any activity against bacteria and fungi
altersolanol D,anti-microbial activity,[8],completely ineffective
altersolanol E,anti-microbial activity,[8],anti-microbial activity; also recorded: completely ineffective
altersolanol F,anti-microbial activity,[8],completely ineffective

# — patent US20120129927A1, “New Anthraquinone Derivatives” (SEALIFE PHARMA GMBH, priority 2009, published 2012)
